Measured values reported in ChEMBL document CHEMBL3507680, “University of Dundee, Gates Library screen for HepG2 cell viability”.

experiment: Human HepG2 cell viability assay in 384 well format; format: toxicity, cell-based; design: dose 125 nL, time 70.5 hour; concentration not given beside the values; details: HepG2 cells, read-out: Inhibition

| SMILES | cytotoxicity at 70.5 h |
| --- | --- |
| CN1CCO[C@@H]2CN(S(=O)(=O)c3ccccc3F)CC[C@@H]2C1 | -1.61% |
| O=C(NCC(O)c1ccccc1)Nc1cccs1 (configuration not stated) | 18.8% |
| COc1nc2ccccc2cc1C1CC(=O)Nc2n[nH]c(C3CCC3)c21 (configuration not stated) | 4.02% |
| Cc1ccc2c(c1)c(Sc1ccccc1)c(CC(=O)O)n2C | 1.6% |
| CSCC(=O)N1CCCN(c2ccncc2C)CC1 | -8.19% |
| O=C(c1ccsc1)N1CCc2c(CN3CCCC3)n[nH]c2C1 | 0.233% |
| COc1cccc(N2CCN(C(=O)C(O)CC(C)C)CC2=O)c1 (configuration not stated) | -2.41% |
| O=C(NCCn1ccc(-c2ccccn2)n1)C1CCC1 | 1.58% |
| O=C(NCc1nnc2n1CCC2)N(Cc1ccc(F)cc1)C1CC1 | -8.55% |
| CCCc1nc(C)cc(N2CCC3(CCC(=O)N(CC(N)=O)C3)CC2)n1 | -8.54% |
| CN(C)S(=O)(=O)N1C[C@@H]2COC[C@]2(COc2ccccn2)C1 | -17.2% |
| O=C(Cn1ccnc1)N1CC[C@H](Oc2cccc(F)c2)[C@@H](O)CC1 | 13% |
| Cc1ccc(NC(=O)CNc2cccc3c2CCCC3)c(Br)c1 | -8.9% |
| Clc1ccccc1CN1CCc2nc(C3CCNCC3)ncc2C1 | -6.61% |
| Cc1nc(CN2CC3(CCN(c4ncc(F)cn4)C3)CC2=O)cs1 (configuration not stated) | -0.115% |
| O=C(Cc1cccs1)NCc1ccnc(OC2CCOCC2)c1 | -6.12% |
| Cc1cnn(CC2CCN(CC(O)CN3CCC(C)CC3)CC2)c1 (configuration not stated) | -4.29% |
| COC1CCCN(C(=O)Nc2nc(C)n(C)n2)C1 (configuration not stated) | -8.2% |
| CCc1[nH]c(C2(N)CCCC2)nc(=O)c1C | 19.5% |
| COc1ccc(OCc2cc(C(=O)N3C[C@@H](C)O[C@@H](C)C3)n[nH]2)c(Cl)c1 | -8.42% |
| CN(CC1COc2ccccc2O1)C(=O)CCn1cncn1 (configuration not stated) | -9.47% |
| O=S1(=O)CCC(n2cc(C3=CCN(CCc4ccccc4)CC3)cn2)C1 (configuration not stated) | -2.15% |
| CCN1CC[C@]2(CN(C(=O)C3CCOCC3)C[C@H]2c2ccccc2)C1=O | 0.473% |

| SMILES | cytotoxicity at 70.5 h |
| --- | --- |
| Cc1ccc(CN2C[C@@H]3[C@@H](C2)OCC(=O)N3Cc2ccncc2)s1 | 10.5% |
| O=C(c1ccnnc1)N1C[C@H](OCC2CCOCC2)[C@H]2OCCC[C@H]21 | 0.563% |
| Nc1cc2c(nn1)CCN(C(=O)c1cccnc1Oc1ccccc1)C2 | -8.86% |
| COc1cc(OC)cc(C(=O)NCc2nn(C)c3c2COCC3)c1 | 0.999% |
| CS(=O)(=O)NC[C@]12COC[C@H]1CN(C(=O)c1ccncn1)C2 | 15.5% |
| COC(=O)c1cccc(OCCn2nc(-c3cccs3)oc2=O)c1 | -21.5% |
| COc1cc2cc(C(=O)NCCC(=O)O)n(C)c2c(OC)c1OC | -4.76% |
| O=C(c1ncccn1)N1CC[C@H]2OCC[C@@]2(COc2ccccn2)C1 | -6.64% |
| CC(C)c1nc(CN(C)C2CCN(Cc3nnc(C4CC4)o3)C2)no1 (configuration not stated) | 1.8% |
| COc1cc(CSc2nnc(C)n2CC(N)=O)ccc1SC | -118% |
| CCn1nc(C)c(CN(CCOC)Cc2ccccn2)c1C | -6.94% |
| CCc1nn(-c2cc(Oc3cccc(C)c3)nc(C)n2)c(N)c1C#N | -8.17% |
| CC(C)CNS(=O)(=O)c1ccc(C(=O)N(C)CCc2cn[nH]c2)cc1 | -8.39% |
| Cc1nc(CN2CCCc3cc(OC(F)(F)F)ccc32)oc1C | 4.79% |
| N#Cc1ccc(CN2C(=O)c3ccccc3CS2(=O)=O)c(F)c1 | 2.45% |
| CNS(=O)(=O)CC1CCCN1c1ccc(Br)cn1 (configuration not stated) | -0.632% |
| COCCNCc1cc2cc(C)cc(C)c2[nH]c1=O | -4.55% |
| Cc1nc2ccccc2nc1NCc1cccc(OCC2CCCO2)c1 (configuration not stated) | 0.538% |
| O=C(Cc1ccccc1)N1CCC2(CCN2Cc2ccc(F)cc2)C1 (configuration not stated) | 7.36% |
| CN(Cc1ccsc1)C(=O)c1cc2c([nH]c1=O)CCCC2=O | -12.8% |
| NC(=O)c1cn[nH]c1C1CCCN1C(=O)c1cnccn1 (configuration not stated) | -10.1% |
| COc1cccc(NC(=O)Cn2c(=O)nc(N)c3cc(C)sc32)c1 | -17.3% |
| CNC(=O)N1CCc2nc(C(=O)NCc3cccc(OC)c3)sc2CC1 | 18% |

| SMILES | cytotoxicity at 70.5 h |
| --- | --- |
| CNCC(=O)N[C@H]1CN(c2nc(C)c3c(n2)CCCC3)C[C@@H]1C1CC1 | -11.2% |
| Cc1nc(C2CCCN(C(=O)C(C)(C)n3cc(Cl)cn3)C2)no1 (configuration not stated) | -13.5% |
| O=S1(=O)C[C@@H]2[C@H](C1)N(Cc1ccoc1)CCN2Cc1ccncc1 | -5.67% |
| Cc1noc(C2CCC3(CCN(C(=O)c4ncccn4)CC3)O2)n1 (configuration not stated) | 2.54% |
| O=C(CCCc1ccccn1)NCC(O)c1ccccc1Cl (configuration not stated) | 3.77% |
| CCn1nc(C(=O)N2CCCC2c2noc(C3CC3)n2)ccc1=O (configuration not stated) | 12.1% |
| NC(=O)CC1CCN(C(=O)NCc2cccc(-n3cccn3)c2)CC1 | -1.91% |
| CC(=O)Nc1nc(C(=O)Nc2ccc(F)cc2)cs1 | -4.84% |
| Cc1nc(C)n(C2CCCN(C(=O)c3ncoc3C(C)C)C2)n1 (configuration not stated) | -11.1% |
| CCOCC1c2c(ncn2C(C)C)CCN1C(=O)CC (configuration not stated) | 7.88% |
| CCS(=O)(=O)NCC(=O)NC(c1cc(C)sc1C)C(C)C (configuration not stated) | -0.761% |
| COC1CCN(C(=O)C2CC(=O)N(c3ccccc3Br)C2)CC1 (configuration not stated) | -8.26% |
| COCC(=O)N1CCOCC2(CCN(Cc3cccs3)C2)C1 (configuration not stated) | -10.6% |
| CCN(CCO)C(=O)Nc1ccc(OCCOC)nc1 | 2.78% |
| COCCN1CCN(CC(C)(O)c2cccc(C(F)(F)F)c2)CC1 (configuration not stated) | -12.6% |
| CCS(=O)(=O)NC[C@]12COC[C@H]1CN(Cc1ccsc1)C2 | 7.84% |
| CCC1=NC(SCC(=O)c2ccc(Cl)cc2)c2cc(CC)sc2N1 (configuration not stated) | -11% |
| COc1ccccc1NC(=O)NCc1cn[nH]c1 | -7.77% |
| Cn1c(=O)n(C)c2nc(Br)c(CC(=O)c3ccccc3)n2c1=O | -4.55% |
| CC(=O)N1CCOC(c2cncc(CCC(N)=O)n2)C1 (configuration not stated) | 7.13% |
| CCN(CC1CCOC1)C(=O)c1cc(OC)c2c(c1)OCCO2 (configuration not stated) | 0.516% |
| c1ncn(CC2CN(Cc3csc(C4CCCC4)n3)CCO2)n1 (configuration not stated) | -7.39% |
| Cn1ccc2c(-c3ccc(NC4CC4)nn3)ccnc21 | -5.5% |

| SMILES | cytotoxicity at 70.5 h |
| --- | --- |
| Cc1noc(C)c1CC(=O)OCC(=O)N1CCc2sccc2C1 | 7.95% |
| O=C(c1ccccc1F)N1C[C@H]2CCC[C@@]2(COCc2ccncc2)C1 | -0.88% |
| CC(=O)Nc1nc(C)c(S(=O)(=O)NCCc2cccnc2)s1 | 1.62% |
| COCCOc1ccc(NC(=O)N2CCCC2c2cc(C)no2)cn1 (configuration not stated) | -7.2% |
| COc1ccc(Br)cc1CN(C)c1nc2c(cnn2C)c(=O)[nH]1 | -10.6% |
| O=C(Cc1ccc2c(c1)CCCC2)NCCNc1cnccn1 | -11.7% |
| COCCCNC(=O)C(C)n1nc(-c2ccco2)cc(N)c1=O (configuration not stated) | -6.27% |
| Cc1ccc(CN2CC[C@H]3CO[C@H](CN4CCCC4)[C@H]3C2)o1 | -8.76% |
| CCc1ccc(CN2C[C@@H](C(=O)O)[C@H](c3ccccc3OC)C2)o1 | -1.56% |
| COc1ccc(NC(=O)NCc2cccc(N(C)C)n2)c(Cl)c1 | -8% |
| Cc1cccc(CN2CC[C@@H]3[C@@H]2CCN3C(=O)c2cnoc2C)n1 | 0.0209% |
| CC(Cn1cccn1)NC(=O)Nc1nncs1 (configuration not stated) | -2.31% |
| Cc1ccc(CN2CCN(C3CCSCC3)CC2CCO)o1 (configuration not stated) | -0.539% |
| N#CCCNC(=O)CN1CCC(c2cc3ccccc3[nH]2)CC1 | -10.1% |
| CCN1C(=O)CC(c2cccnc2)C12CCN(c1ncc(F)cn1)CC2 (configuration not stated) | 1.09% |
| O=C1CSC(c2ccsc2)c2c(n(C3CCCC3)[nH]c2=O)N1 (configuration not stated) | -12.7% |
| O=C(NCCCc1ccc(O)cc1)C1(O)Cc2ccccc2C1 | -8.24% |
| Cc1ccccc1OC1CCN(CC(=O)Nc2ccn(C)n2)CC1 | -7.79% |
| FC(F)Oc1ccc(CNCc2cc(Br)c3c(c2)OCO3)cc1 | -6.89% |
| CCC(Nc1nccc(C2CCCC2)n1)c1ncccc1C (configuration not stated) | 14.1% |
| CC(C)CN1Cc2nc(N3CCC(O)CC3)ncc2C1=O | 12.9% |
| Cc1sc(NC(=O)CN2CCCC(c3ncc[nH]3)C2)c(C)c1C (configuration not stated) | -14.9% |
| Cc1ccc(C(=O)N2CCN(C(=O)C(C)n3ccnc3)CC2)cc1F (configuration not stated) | -5.92% |

| SMILES | cytotoxicity at 70.5 h |
| --- | --- |
| Cc1ncccc1NC(=O)[C@@H]1CC[C@@H]2[C@@H](CCN2Cc2cnn(C)c2)O1 | 13.5% |
| Cc1sc2c(C3CCCN(S(C)(=O)=O)C3)nc(C)n2c1C (configuration not stated) | -9.83% |
| Cc1nc(NC(=O)COCC(F)(F)F)ccc1Br | 1.69% |
| CSCc1cc(F)ccc1CNCc1cccc(O)c1 | -5.38% |
| Cc1cc(C)n2c(CCCNS(=O)(=O)c3cccs3)nnc2n1 | -10.2% |
| NC(=O)c1cc2c(nc1-c1ccoc1)CCC2 | -6.2% |
| CCC(=O)N1CCCCC1c1nc(O)c2c(n1)CN(C(C)=O)CC2 (configuration not stated) | -2.47% |
| COCCN(Cc1ccccn1)C(=O)CC1OCCc2ccsc21 (configuration not stated) | -1.83% |
| CN(C)CCN1CC(C(=O)NCc2cn3cccnc3n2)CC1=O (configuration not stated) | -5.17% |
| Cc1noc(CCCC(=O)NC(C)c2ccc(Cl)s2)n1 (configuration not stated) | -7.88% |
| Cc1ncsc1C(=O)N1CCn2nc(CN3CCSCC3)cc2C1 | -1.17% |
| O=C(c1ccncc1F)N1C[C@@H]2OCCN(CC3CC3)[C@@H]2C1 | -12.9% |
| CC[C@@]1(O)CCN(Cc2cc(C3CCCCC3)no2)C[C@H]1O | -2.92% |
| Nc1nc(SCc2ccc3c(c2)OCO3)ns1 | -0.0923% |
| COCCN1CCC2(CCCN(C(=O)c3cncn3C)C2)CC1 | -3.6% |
| O=C(c1ccncc1)N1CCOC2(CCCN(c3nncs3)C2)C1 (configuration not stated) | -0.0919% |
| CCc1ncc2c(n1)CN(CC(=O)NCCOc1ccccc1)CC2 | -5.27% |
| CN(C)[C@@H]1CN(C(=O)c2ccc(C#N)cc2)[C@@H]2CCCO[C@H]12 | 3.23% |
| N#Cc1cccc(C(=O)N2CCc3c(COCC4CC4)cncc3C2)c1 | -17.6% |
| CN(CCc1ccncc1)C(=O)C1CSCN1C(=O)CC(C)(C)C (configuration not stated) | -12.5% |
